Key:
[1] = system: NFKB activity in reporter MC38 cells; assay: NFKB luciferase reporter activity in MC38 cells; format: cell-based, murine; conditions: Mus musculus, MC-38, +10 ng/ml rHuTNF for 8 h
Description: FIG. 28: depicts: (A) and (B) effect of compound E9 on NFKB activity. […] Luciferase activity was normalised to cells treated with rHuTNF without inhibitor (DMSO only). Y-axis=NFKB activity (%). X-axis=compound concentration (nM); Bar “A” viability without compound and without TNF; bar “B” viability without compound and with 10 ng/ml TNF; and (C) Effect of compound E9 on HDAC4 phosphorylation. […] Whole cell lysates were analysed in a Meso Scale Discovery (MSD) assay with anti-HDAC4 capture and anti-pHDAC4 detection antibodies. HDAC4 phosphorylation was normalized to untreated PANC-1 cells (DMSO only). Y-axis=HDAC4 phosphorylation (%). X-axis=Compound concentration (nM).

CSF1R = CSF1R (Homo sapiens (Human), UniProt P07333); format: biochemical; conditions: Kinase Profiler
Sequence of CSF1R (P07333 20-972 limits assumed): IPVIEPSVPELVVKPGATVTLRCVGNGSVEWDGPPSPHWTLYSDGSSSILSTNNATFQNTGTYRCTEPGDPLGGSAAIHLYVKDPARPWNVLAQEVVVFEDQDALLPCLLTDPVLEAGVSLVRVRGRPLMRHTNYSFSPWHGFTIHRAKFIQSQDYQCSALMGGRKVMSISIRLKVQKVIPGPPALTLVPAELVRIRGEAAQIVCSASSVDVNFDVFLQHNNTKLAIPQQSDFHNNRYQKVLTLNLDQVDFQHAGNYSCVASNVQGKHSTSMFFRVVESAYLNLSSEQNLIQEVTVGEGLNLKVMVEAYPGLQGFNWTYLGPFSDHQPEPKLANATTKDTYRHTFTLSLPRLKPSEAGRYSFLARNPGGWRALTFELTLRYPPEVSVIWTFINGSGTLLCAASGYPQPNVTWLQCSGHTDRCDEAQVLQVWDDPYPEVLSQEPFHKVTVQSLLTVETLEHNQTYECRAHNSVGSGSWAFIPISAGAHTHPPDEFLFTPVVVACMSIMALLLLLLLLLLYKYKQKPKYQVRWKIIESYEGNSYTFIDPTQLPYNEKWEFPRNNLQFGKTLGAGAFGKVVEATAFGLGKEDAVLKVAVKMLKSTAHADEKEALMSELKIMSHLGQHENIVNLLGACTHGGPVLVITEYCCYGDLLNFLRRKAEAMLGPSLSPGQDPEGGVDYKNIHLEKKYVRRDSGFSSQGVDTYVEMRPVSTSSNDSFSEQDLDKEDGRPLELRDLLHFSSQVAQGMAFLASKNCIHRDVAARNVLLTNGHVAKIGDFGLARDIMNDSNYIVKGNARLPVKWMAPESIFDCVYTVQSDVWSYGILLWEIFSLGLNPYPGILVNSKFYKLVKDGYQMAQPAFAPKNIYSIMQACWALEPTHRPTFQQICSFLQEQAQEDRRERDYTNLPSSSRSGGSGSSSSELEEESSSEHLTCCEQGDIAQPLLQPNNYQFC

HCK = HCK (Homo sapiens (Human), UniProt P08631); format: biochemical; conditions: Kinase Profiler
[2] = Human hepatocyte stability; format: in vitro ADME
[3] = Mouse hepatocyte stability; format: in vitro ADME; conditions: hepatocytes
[4] = system: MC38 colorectal carcinoma tumours; assay: MC38 syngeneic mouse model, E9 and anti-PD-1 alone and in combination (Example 10); format: in vivo, C57Bl/6N mice; conditions: E9 25 mg/Kg twice daily and/or anti-PD-1 mAb
[5] = system: SIK3 WT and KO MC38 clones; assay: TNF-mediated killing of SIK3 wildtype vs SIK3 knockout MC38 clones (CTG); format: cell-based, mouse; conditions: sub-optimal TNF (<10 ng/ml), 72 h
Description: The assay was performed as follows: MC38 SIK3 KO clones were generated using CRISPR. Cells were transfected with RNP complexes (Cas9+gRNA) containing gRNAS targeting SIK3 or non-targeting sequences (control). […] Subsequently, single cell clones were generated by limiting dilution. CRISPR-derived mutations in single clones were detected by next-generation sequencing and analysed using CRISPResso. Knockout and wildtype clones were selected and plated overnight. […] Cells treated with different concentrations of inhibitor but without TNF served as no TNF control. Cell viability was measured by CTG assay.

SIK3 [6] = target: T1, SIK3 (Homo sapiens (Human), UniProt Q9Y2K2); conditions: fold of the value of compound C7 (C7 = 1×)
in vivo = conditions: male, CD1, mouse, po, 30 mg/kg
in vitro [7] = conditions: human, microsomes
in vitro [8] = conditions: mouse, microsomes
SIK2 = SIK2 (Homo sapiens (Human), UniProt Q9H0K1); assay: SIK2 kinase inhibition (IC50); conditions: read-out: Kinase: IC50 (nM) SIK2
SIK3 [9] = target: T1, SIK3; assay: SIK3 kinase inhibition (IC50); conditions: read-out: Kinase: IC50 (nM) SIK3
[10] = Human plasma-protein binding
[11] = Murine plasma protein binding
MDR1 (P-gp) = MDR1 (P-gp) (Homo sapiens (Human), UniProt P08183); assay: MDR1-MDCK effective efflux assay; conditions: dog; for efflux ratio: Table 5.1B
[12] = target: MDR1 pump (P-gp), MDCK-MDR1 cells (Homo sapiens (Human), UniProt P08183); assay: MDR1-MDCK effective efflux assay; conditions: Table 5.1B
[13] = MDCK wild type permeability/efflux; conditions: dog
[14] = Screening PK in mice after 30 mg/kg po; conditions: for concentration at 6 h: mice, 30 mg/kg po
[15] = Metabolite profile in hepatocytes / in vivo
Description: Metabolites are identified using high-resolution mass spectrometry.

[16] = system: MC38 colorectal carcinoma tumours; assay: MC38 syngeneic mouse tumour model (Example 8.1); conditions: MC38; for Body weight increase (%) / Non-treatment related death / Tumour growth inhibition (%): BID po
[17] = system: HDAC4 phosphorylation in PANC-1 cells; assay: HDAC4 phosphorylation (Meso Scale Discovery assay); conditions: 10 ng/mL rHuTNF, 3 h
PANC1 cells = assay: TNF-sensitised cell viability assay (CellTiter-Glo); conditions: Homo sapiens, PANC-1, read-out: PANC IC50 (at 100 ng/ml rHuNF)
[18] = system: NFKB activity in PANC-1 cells; assay: TNF-induced NFKB activity (NFKB-dependent luciferase reporter); conditions: 10 ng/ml rHuTNF, PANC-1 reporter cells
[19] = system: NFKB activity in MC38 cells; assay: as above; conditions: 10 ng/ml rMuTNF
[20] = total plasma concentration at 30 mg/kg p.o dose, fold of C7 (C7 = 1×)

Cc1nc(Nc2ncc(C(=O)Nc3c(CF)csc3Cl)s2)cc(N2CCN(C)CC2)n1 [Compound E9, N-(2-chloro-4-(fluoromethyl)thiophen-3-yl)-2-((2-methyl-6-(4-methylpiperazin-1-yl)pyrimidin-4-yl)amino)thiazole-5-carboxamide]
EC50 [1]: 389 nM
CSF1R residual activity (CSF1R): less than 1%
HCK residual activity (HCK): less than 1%
Human hepatocyte stability, Half-life [2]: 24 min
half-life ([2]; human, hepatocytes, read-out: Human hepatocyte stability, Half-life): 21 to 30 min
microsomal CLint ([2]; human, hepatocytes, read-out: Human hepatocyte stability, Intrinsic clearance): 58 µL/min/mg
half-life [3]: 65 min
microsomal CLint ([3]; read-out: Mouse hepatocyte stability, Intrinsic clearance): 21 µL/min/mg
TGI [4]: 73%
TNF-mediated killing in SIK3 WT vs KO MC38 clones [5]: induced TNF-mediated killing only in SIK3 WT clones
SIK3 IC50 (nM), relative to C7 (SIK3 [6]): 0.3×
AUC(0-inf) (in vivo): 9.63 µM·h
AUC(0-t) (in vivo): 9.58 µM·h
Cmax (in vivo): 2690 ng/mL
MRT last (in vivo): 203 min
Tmax (in vivo): 15 min
half-life (in vivo): 166 min
half-life (in vitro [7]): 11 min
microsomal CLint (in vitro [7]): 131 µL/min/mg
half-life (in vitro [8]): 9 min
microsomal CLint (in vitro [8]): 158 µL/min/mg
IC50 (SIK2): < 10 nM
IC50 (SIK3 [9]): < 20 nM
Human plasma-protein binding, Percentage unbound (%) ([10]; Table 5.1A): 1%
recovery at 4 h ([10]; human, plasma): 92%
Murine plasma protein binding, Percentage unbound (%) ([11]; Table 5.1A): 1%
recovery at 4 h ([11]; mouse, plasma): 88%
Papp (MDR1 (P-gp); MDCK-MDR1): 5 ×10⁻⁶ cm/s
efflux ratio (MDR1 (P-gp); MDCK-MDR1, MDCK-MDR1 cells, Mean Efflux Ratio (MDR1)): 20 to 30
efflux ratio (MDR1 (P-gp); MDCK-MDR1, P-gP driven efflux ratio (MDR1/wt)): 27
MDCK-MDR1 cells, Mean Efflux Ratio (MDR1) [12]: 26
Papp [13]: 10 ×10⁻⁶ cm/s
efflux ratio [13]: 1
fold improvement of free serum concentration over C7 ([14]; mouse, in vivo): 2 fold
fold improvement of total serum concentration over C7 ([14]; mouse, in vivo): 4.5 fold
Cmax at 2 h ([14]; mouse, plasma, po, 30 mg/kg): 426 ng/mL
concentration at 6 h ([14]; mouse, plasma, po, 30 mg/kg, Free plasma concentration after 6 h (nM)): 7.7 nM
concentration at 6 h ([14]; mouse, plasma, po, 30 mg/kg, Plasma concentration after 6 h (nM)): 309 nM
AUC0-last (nM*h), relative to C7 [14, 20]: 8.2×
C max (ng/ml), relative to C7 [14, 20]: 5.6×
MRT0-last (h), relative to C7 [14, 20]: 1.2×
t1/2 (h), relative to C7 [14, 20]: 2×
quinone-imine reactive metabolite [15]: not observed
Body weight increase (%) ([16]; 25 mg/Kg): 16.8%
Non-treatment related death ([16]; 25 mg/Kg): 2/16
Tumour growth inhibition (%) ([16]; 25 mg/Kg): 74%
average TGI ([16]; 25 mg/kg BID): 72%
Body weight increase (%) ([16]; 50 mg/Kg): 18.7%
Non-treatment related death ([16]; 50 mg/Kg): 3/16
Tumour growth inhibition (%) ([16]; 50 mg/Kg): 69%
Inhibition of HDAC4 phosphorylation [17]: ++
IC50 (PANC1 cells): < 100 nM
Inhibition of NFKB activity (PANC-1) [18]: ++
Inhibition of NFKB activity (MC38) [19]: ++

— US20230348453A1, “HALOGENATED-HETEROARYL AND OTHER HETEROCYCLIC KINASE INHIBITORS, AND USES THEREOF” (iOmx Therapeutics AG, priority 2020, published 2023)
